≈ marks a conversion by molar mass, not a printed value. Read-outs that look alike come from different tables or passages of the source. Blank lines part the entries; values can stand above or below the molecule they belong to.
Key:
HCC38 = assay: MTT cytotoxicity assay; format: cell-based; conditions: Homo sapiens, 24 h incubation, mean ± SEM
Procedure: (§1) Cell viability was determined using the metabolic microplate spectrophotometric assay with Methylthiazolyl diphenyltetrazolium bromide (MTT), i.e., 3-(4,5-Dimethyl-2-thiazolyl)-2,5-diphenyl-2H-tetrazolium bromide (Sigma-Aldrich; St. Louis, MO, USA). The anticancer activity of the investigated compounds was evaluated in vitro on the basis of their ability to inhibit the proliferation of various cancer cells. The appropriate number of cells for a given cell line (6–8 × 10^3 cells/mL) were seeded into sterile, colorless 96-well microplates. After 24 h of culture, specific wells of the microplate were treated with test compounds (10–200 µmol/L concentration) and incubated in a CO2 incubator for 24 h. The medium was then removed, the cell monolayer was washed twice with sterile PBS solution and fresh culture medium was added to the wells of the microplate.
(§2) After 48 h of cell culture, the MTT test was conducted. In each well of the microplate, 50 µL of tetrazolium salt solution (final concentration 0.05 mg/mL) was added. The microplate was then placed in a CO2 incubator for 3–4 h (depending on the cell line). Following incubation, 100 µL of DMSO (dimethyl sulfoxide, Sigma-Aldrich, St. Louis, MO, USA) was added to the microplate wells to dissolve the purple formazan crystals formed in the environment of living cells. The absorbance of the formazan solution was read at a wavelength of λ = 580 nm and a reference wavelength of λ = 720 nm after gentle mixing (Biotek Power Wave HT, Biotek Instruments, Winooski, VT, USA).
(§3) The percentage of live cells was calculated by comparing the absorbance value of the tested samples with that of the control (cells not treated with compounds). Control absorbance was arbitrarily considered to be 100%.
(§4) In order to determine the contribution of ROS to the cytotoxicity of the tested compounds, the cells were pre-incubated for 1 h with the antioxidant vitamin E (Trolox, Sigma-Aldrich; St. Louis, MO, USA). Cells were seeded into sterile, colorless 96-well microplates at a concentration of 6–8 × 10^3 cells/mL, depending on the cell line. After 24 h of culture, Trolox was added at a final concentration of 50 μM/well. After 1 h of incubation, the antioxidant was washed off, then appropriate concentrations of test compounds (10–200 µmol/L concentration) were added to fresh cell culture medium and incubated for 24 h. The MTT test was then performed under identical experimental conditions, as described in Section 3.1.2.

Hec-1-A = assay: MTT cytotoxicity assay; format: cell-based; conditions: Homo sapiens, 24 h incubation, mean ± SEM
Procedure: as §1, §2, §3, §4

MCF-7 = assay: MTT cytotoxicity assay; format: cell-based; conditions: Homo sapiens, MCF7, 24 h incubation, mean ± SEM
Procedure: as §1, §2, §3, §4

MDA-MB-231 = assay: MTT cytotoxicity assay; format: cell-based; conditions: Homo sapiens, 24 h incubation, mean ± SEM
Procedure: as §1, §2, §3, §4

Ishikawa = assay: MTT cytotoxicity assay; format: cell-based; conditions: Homo sapiens, Ishikawa, 24 h incubation, mean ± SEM
Procedure: as §1, §2
The percentage of live cells was calculated by comparing the absorbance value of the tested samples with that of the control (cells not treated with compounds). Control absorbance was arbitrarily considered to be 100%. […]

[1] = tested on: breast cancer cells (MCF-7, MDA-MB-231 and HCC38) and endometrial cancer cells (Ishikawa, Hec-1-A); assay: MTT cytotoxicity assay, summary over the cell lines; format: cell-based, human; conditions: for cytotoxic activity (in words): range of 10–200 µM, all cancer lines
Procedure: as §1, §2
The percentage of live cells was calculated by comparing the absorbance value of the tested samples with that of the control (cells not treated with compounds). Control absorbance was arbitrarily considered to be 100%. […] Moreover, cisplatin (Sigma-Aldrich, St. Louis, MO, USA) was used as a reference compound, and identical incubation conditions were used as described above.

cancer cells = assay: Reactive oxygen species generation (results not published); format: cell-based
[2] = MTT cytotoxicity assay, model of normal cells; format: cell-based; conditions: human, HMEC-1 cells (model of normal cells), 24 h incubation, mean ± SEM, read-out: Cytotoxic effect of analogues incorporated in cyclodextrins and cyclodextrin, IC50
Procedure: as §1, §2, §3

RBCs = assay: Erythrocyte morphology, phase contrast microscopy; format: cell-based, human; conditions: all tested concentrations; 24 h, 37 °C
Procedure: The experiments on human blood were performed in accordance with Polish national guidelines, and the study protocols were approved by the Bioethics Committee of the Medical University of Lodz, Poland: approval no (RNN/104/20/KE). The blood samples were obtained from healthy donors at the Blood Donation Centre in Lodz. The procedure for […] for erythrotoxicity studies is given in a previous paper. The influence of the synthesized compounds, together with a reference compound on RBC membrane integrity, was performed by lysis assay, described elsewhere. Briefly, 2% RBC suspension in 0.9% NaCl was incubated at 37 °C for 24 h with the tested compounds at concentrations of 100 µmol/L, 50 µmol/L, 25 µmol/L, 10 µmol/L and 1 µmol/L. The samples were centrifuged at 3000 rpm for 10 min, and the absorbance of the supernatant was measured at 550 nm. The results are presented as a percentage of hemolysis where a sample containing 10 μL of 2.0% v/v Triton X-100 was regarded as a positive control contributing to 100% of hemolysis. A sample containing saline solution represented the spontaneous hemolysis of RBCs (control). The experiments were conducted using at least three different biological materials (n = 3). […] Additionally, erythrocyte morphology was evaluated using a phase contrast Opta-Tech inverted microscope at 400× magnification.

[3] = Isothermal titration calorimetry (ITC) of inclusion complex formation; format: physicochemical; conditions: DMSO, 25 °C
Procedure: Measurements were carried out using a MicroCal VP-ITC100 microcalorimeter equipped with a 1400 μL measurement cell. All titrations were carried out under isothermal conditions at 25 degrees C in DMSO solution, which was used as a solvent. The mixing speed during the measurements was 351 rpm. The 0.2 mM solution of the ligand (3, 3a and 5) located in the measurement cell was titrated with the cyclodextrin solution located in the syringe. Each measurement consisted of 50 injections of cyclodextrin with a volume of 5 uL and a concentration of 5 mM. The interval between individual injections was 300 s. The effect of direct interaction of the ligand with CD was calculated by subtracting the thermal effects of diluting 5 mM cyclodextrin in a pure solvent. The dilution effect of the 0.2 mM ligand solution was negligible. The results obtained were processed in the MicroCall Origin 7 software. Using a single active site model (ITC Tutorial Guide), the stability constant K of the resulting complex, its stoichiometry n and thermodynamic parameters that describe the ongoing process were determined, viz., enthalpy (ΔH), Gibbs free energy (ΔG) and entropy (ΔS).

[4] = Water solubility by UV–Vis spectrophotometry (phase solubility with cyclodextrins); format: physicochemical; conditions: 25 °C, thermodynamic from solid, 298.15 K, without cyclodextrin, read-out: Solubility in H2O
Procedure: Spectrophotometric measurements were performed using a SPECORD 50 single-beam UV–Vis spectrophotometer (Analyst Jena, Thuringia, Germany). The calibration lines of the compounds tested were determined for the concentration range of 3.0 × 10^−6 M to 1 × 10^−4 M (Figure 21). The molar extinction coefficients for 3, 3a, and 5 were determined experimentally in an aqueous ethanol solution; the relevant maximum wavelengths are presented in Table 9. The influence of α-cyclodextrins, β-cyclodextrins and HP-β-cyclodextrins on the solubility of the tested ligands in water was evaluated in three measurement series. Briefly, excess ligand was introduced into closed Eppendorff tubes containing α-CD, β-CD or HP-β-CD solutions, at concentrations ranging from 1 to 90 mM for α-CD and HP-β-CD and from 1 to 15 mM for β-CD. The test tubes were stored for 10 days at a temperature of 298.15 K until equilibrium was achieved. After this time, the solutions were centrifuged using a Microcentrifuge MPW-55 at 13,000 rpm for five minutes. For testing, a clear solution was taken from above the sediment and diluted appropriately so that the spectrum was within the operating range of the spectrophotometer.

[5] = read-out: Cytotoxic effect, IC50
[6] = read-out: Cytotoxic effect of analogues incorporated in cyclodextrins and cyclodextrin, IC50

Structure (SMILES): Cc1ccc(/C=C2/C(=O)c3ccccc3OC2c2ccccc2)cc1 (stereo not drawn) [Compound 4]
IC50 (HCC38; [5]): 93.2 ± 2.8 µM
IC50 (Hec-1-A; [5]): 44.6 ± 4.5 µM
IC50 (MCF-7; [5]): 53.4 ± 4.1 µM
IC50 (MDA-MB-231; [5]): > 120 µM
IC50 (Ishikawa; [5]): 48.9 ± 6.1 µM
cytotoxic activity (in words) [1]: very weak cytotoxic activity
changes in the level of reactive oxygen species generation (in words) (cancer cells): no statistically significant changes

Structure (SMILES): OC[C@H]1O[C@@H]2O[C@H]3[C@H](O)[C@@H](O)[C@@H](O[C@H]4[C@H](O)[C@@H](O)[C@@H](O[C@H]5[C@H](O)[C@@H](O)[C@@H](O[C@H]6[C@H](O)[C@@H](O)[C@@H](O[C@H]7[C@H](O)[C@@H](O)[C@@H](O[C@H]8[C@H](O)[C@@H](O)[C@@H](O[C@H]1[C@H](O)[C@H]2O)O[C@@H]8CO)O[C@@H]7CO)O[C@@H]6CO)O[C@@H]5CO)O[C@@H]4CO)O[C@@H]3CO [β-CD, β-cyclodextrin, reference compound]
IC50 (HCC38; [6]): > 120 µM
IC50 (Hec-1-A; [6]): > 120 µM
IC50 (MCF-7; [6]): > 120 µM
IC50 (MDA-MB-231; [6]): > 120 µM
IC50 (Ishikawa; [6]): > 120 µM
IC50 at 24 h [2]: > 120 µM
cytotoxic activity of pure cyclodextrin (in words) ([1]; HMEC-1 endothelial cells or any tested cancer cells, 10–120 µM): not found to demonstrate any cytotoxic activity
RBC morphology (in words) (RBCs): no pathological changes in RBCs or damaged cells were observed

Structure (SMILES): CCN(CC)c1ccc(/C=C2/C(=O)c3ccccc3OC2c2ccccc2)cc1 (stereo not drawn) [Compound 2]
IC50 (HCC38; [5]): > 200 µM
IC50 (Hec-1-A; [5]): > 200 µM
IC50 (MCF-7; [5]): 122 ± 6.7 µM
IC50 (MDA-MB-231; [5]): > 200 µM
IC50 (Ishikawa; [5]): > 200 µM
cytotoxic activity (in words) [1]: very weak cytotoxic activity
changes in the level of reactive oxygen species generation (in words) (cancer cells): no statistically significant changes

K (formation constant) ([3]; HP-β-cyclodextrin): 5.66 × 10^3 ± 390
n (stoichiometry) ([3]; HP-β-cyclodextrin): 0.98 ± 0.09
ΔG ([3]; HP-β-cyclodextrin): −21,420.7 J mol^−1
ΔH ([3]; HP-β-cyclodextrin): -0.185 ± 0.0141 kcal/mol
ΔS ([3]; HP-β-cyclodextrin): 69.3 J mol^−1K^−1
K (formation constant) ([3]; α-cyclodextrin): 1.51 × 10^3 ± 130
n (stoichiometry) ([3]; α-cyclodextrin): 0.85 ± 0.13
ΔG ([3]; α-cyclodextrin): −18,145.5 J mol^−1
ΔH ([3]; α-cyclodextrin): -0.0669 ± 0.021 kcal/mol
ΔS ([3]; α-cyclodextrin): 59.9 J mol^−1K^−1
K (formation constant) ([3]; β-cyclodextrin): 2.49 × 10^3 ± 200
n (stoichiometry) ([3]; β-cyclodextrin): 0.92 ± 0.11
ΔG ([3]; β-cyclodextrin): −19,385.4 J mol^−1
ΔH ([3]; β-cyclodextrin): -0.202 ± 0.017 kcal/mol
ΔS ([3]; β-cyclodextrin): 62.2 J mol^−1K^−1
solubility at 10 days [4]: 1.55 µM (≈ 0.596 µg/mL)
Structure (SMILES): COc1cccc(C2CN=NC23C(=O)c2ccccc2OC3c2ccccc2)c1 (stereo not drawn) [Compound 3a]
IC50 (HCC38; [5]): > 120 µM
IC50 (Hec-1-A; [5]): 67.2 ± 2.5 µM
IC50 (MCF-7; [5]): 84.2 ± 2.2 µM
IC50 (MDA-MB-231; [5]): > 120 µM
IC50 (Ishikawa; [5]): 68.5 ± 4.6 µM
cytotoxic activity (in words) [1]: very weak cytotoxic activity
changes in the level of reactive oxygen species generation (in words) (cancer cells): no statistically significant changes

From paper PMC11312998, “Molecular Pro-Apoptotic Activities of Flavanone Derivatives in Cyclodextrin Complexes: New Implications for Anticancer Therapy” (International Journal of Molecular Sciences, 2024)
